Patent US20090012005A1, “Use of an angiotensin IV antagonist to treat insulin resistance or cardiovascular risk related to metabolic syndrome” (priority 2007, published 2009)
“Also recorded” adds a separate entry of the source. Square brackets hold non-standard residues; d marks the D form. Peptide text beside a SMILES is read from it. * marks the point of attachment. ξ: configuration not given here. β3hF = N[C@H](CC(=O)O)Cc1ccccc1; Ile(3ξ) = CCC(C)[C@H](N)C(=O)O; X1 = CC(C)C(CN)C(=O)*

Legend:
[1] = test system: angiotensinogen (AGT) and AT1 receptor (AT1R) expression in human vascular smooth muscle cells; test: expression of angiotensinogen and AT1 receptors (mRNA) in primary human vascular smooth muscle cell cultures; format: cell-based; conditions: for inhibition of the angiotensinogen (and AT1 receptor) response to angiotensin IV: 100 nM angiotensin IV, antagonist at increasing concentrations, given 30 minutes before angiotensin IV (FIG. 3)
Protocol: This effect may be measured by analyzing messenger RNA as well as the corresponding proteins.
Inhibition of these effects of angiotensin IV by candidate compounds is the foundation of the model. These cellular models encompass a screening approach as well as quantitative approaches. Angiotensin IV is used at a concentration of 100 nM, a concentration at which its binding to angiotensin II receptors is minimal.
(§1) The inventors used primary cultures and vascular muscle smooth cell lines of various species (man, rat, mouse); all cell lines in which angiotensin IV exerts stimulatory effects on the expression of angiotensinogen and angiotensin II AT1 receptors may be used. The confluent smooth muscle cells are placed in a serum-free culture medium (human vascular smooth muscle medium 2 from Promocell, or any other equivalent medium), in order to block their multiplication and to synchronize them. After 24 hours of habituation in this culture medium, the medium is replaced by fresh medium to which the various test substances are added according to the order adapted to the experimental protocol. Measurements are taken after 24 hours of treatment in the case of analyses of angiotensinogen and AT1 receptor expression. The antagonists are applied to the cells 30 minutes before angiotensin IV. The cells are exposed to 100 μU/ml of insulin to measure glucose uptake.
The results are the mean of pairs of measurements taken in human vascular smooth muscle cells from six patients.

[2] = test system: human vascular smooth muscle cells; test: insulin-induced 3H-deoxyglucose uptake in human vascular smooth muscle cells; format: cell-based; conditions: for amplitude of maximum effect / lower plateau: inhibition of insulin-induced deoxyglucose uptake, 4-parameter logistic regression (FIG. 4); for reversion of the inhibition by angiotensin IV of insulin-induced glucose uptake: antagonist pretreatment, cells from five patients (FIG. 5)
Source text: This effect by angiotensin IV is not blocked by angiotensin II AT1 receptor antagonists or by angiotensin II AT2 receptor antagonists.
Angiotensin IV inhibits insulin-induced glucose uptake in vascular smooth muscle cells by a mechanism independent of angiotensin II AT1 and AT2 receptors.
as §1
The results are the mean of pairs of measurements taken in cells from six patients.

Row | Compound | effect on IRAP expression [1] | effect on expression of angiotensinogen and AT1 receptors ([1]; independent of AT1 receptors (FIG. 2)) | amplitude of maximum effect [2] | lower plateau [2] | inhibition of the angiotensinogen (and AT1 receptor) response to angiotensin IV [1] | reversion of the inhibition by angiotensin IV of insulin-induced glucose uptake [2]
1 | CC[C@H](C)[C@H](NC(=O)[C@H](Cc1ccc(O)cc1)NC(=O)[C@@H](N)C(C)C)C(=O)N[C@@H](Cc1cnc[nH]1)C(=O)N1CCC[C@H]1C(=O)N[C@@H](Cc1ccccc1)C(=O)O [angiotensin IV, Val-Tyr-Ile-His-Pro-Phe] | reduces | stimulating | 58.0%±2.3% | 41.9±1.4 | – | –
2 | CCC(C)[C@H](NC(=O)[C@H](Cc1ccc(O)cc1)NC(=O)C(CN)C(C)C)C(=O)N[C@@H](Cc1c[nH]cn1)C(=O)N1CCC[C@H]1C(=O)N[C@H](CC(=O)O)Cc1ccccc1 (stereo partly drawn) [compound AL-11, H-β^2hVal-Tyr-Ile-His-Pro-β^3hPhe-OH] (X1-Y[Ile(3ξ)]HP[β3hF]-OH) | – | – | – | – | inhibition; also recorded: much more powerful in preventing the response | reversion
3 | CC(C)[C@H](N)CN[C@@H](Cc1ccc(O)cc1)C(=O)N[C@H](CN[C@@H](Cc1c[nH]cn1)C(=O)N1CCC[C@H]1C(=O)N[C@@H](Cc1ccccc1)C(=O)O)C(C)C [divalinal, N-Val-(CH2—NH)-Tyr-Val(CH2—NH)-His-Pro-Phe] | – | – | – | – | inhibition; also recorded: weaker depressor of the maximum response | reversion
4 | Angiotensin II: angiotensin peptide hormone acting on AT1 and AT2 receptors, used for comparison (DRVYIHPF; Angiotensin-2; UniProt P01019 25-32, looked up) | – | – | 42.2%±6.4% | 56.3±4.5 | – | –
5 | LVV-hemorphin-7 | – | – | – | – | no activity | no activity
